Results published in ChEMBL document CHEMBL4739717, “Methods of treating cartilage disorders through inhibition of clk and dyrk” (2020).

Legend:
[1] = Induction of chondrogenesis in human MSC assessed as incubated for 6 days by rhodamine B and Nile red staining based imaging analysis; assay type: functional; details: bmmsc
[2] = target: Dual specificity tyrosine-phosphorylation-regulated kinase 1A (Homo sapiens, UniProt Q13627); experiment: Inhibition of recombinant DYRK1A (unknown origin) using Ser/Thr 18 peptide as substrate incubated for 1 hr in presence of ATP by FRET assay
[3] = Effect on Wnt signaling pathway in human SW480 cells harbouring TCF/LEF luciferase reporter gene and SP5-Luc reporter gene incubated for 36 to 48 hrs by luminescence assay; assay type: cell-based
[4] = Induction of chondrogenesis in human MSC assessed as maximum activity at 10 nM incubated for 6 days by rhodamine B and Nile red staining based imaging analysis relative to control; assay type: functional; details: BMMSC, 144 h, time 6 day

| SMILES | EC50 [1] [nM] | EC50 [2] [nM] | EC50 [3] [nM] | Emax at 0.01 µM [4] [%] |
| --- | --- | --- | --- | --- |
| CN(C)Cc1cncc(-c2ccc3[nH]nc(-c4nc5c(-c6cccc(F)c6)nccc5[nH]4)c3n2)c1 | 30 | 48 | 1050 | 75.6 |
| CN(C)CCNc1cc(F)cc(-c2cccc3[nH]c(-c4n[nH]c5cnc(-c6cncc(O)c6)cc45)cc23)c1 | 10 | 60 | 405 | 66.4 |
| CN(C)CCNc1cc(F)cc(-c2cccc3[nH]c(-c4n[nH]c5ccc(-c6cncnc6)nc45)cc23)c1 | 10 | 75 | 420 | 181 |
| O=C(Nc1cncc(-c2ccc3[nH]nc(-c4nc5c(-c6ccccc6F)ccnc5[nH]4)c3n2)c1)C(F)(F)F | 10 | 86 | > 10000 | 74 |
| CS(=O)(=O)NCc1cc(F)cc(-c2nccc3[nH]c(-c4n[nH]c5cnc(-c6cncc(CNCC7CCCC7)c6)cc45)cc23)c1 | 30 | 27 | > 10000 | 52.3 |
| c1ccc(CNCc2cncc(-c3ccc4[nH]nc(-c5cc6c(-c7cccs7)cncc6[nH]5)c4c3)c2)cc1 | 10 | 63 | 578 | 57.4 |
| c1cncc(-c2ccc3[nH]nc(-c4nc5c(-c6cccnc6)cccc5[nH]4)c3n2)c1 | 30 | 53 | 1120 | 57.8 |
| CC(C)Nc1cncc(-c2ccc3[nH]nc(-c4cc5c(-c6cccnc6)cccc5[nH]4)c3c2)c1 | 10 | 83 | 100 | 226 |
| CN(C)Cc1cncc(-c2ccc3[nH]nc(-c4cc5c(-c6cccc(F)c6)cncc5[nH]4)c3c2)c1 | 10 | 43 | 1280 | 193 |
| c1cncc(-c2ccc3[nH]nc(-c4nc5cnccc5[nH]4)c3n2)c1 | 30 | 97 | > 10000 | 54.8 |
| CN(C)Cc1cncc(-c2cc3c(-c4cc5c(-c6cccc(F)c6)nccc5[nH]4)n[nH]c3cn2)c1 | 30 | 54 | 1850 | 60 |
| CCCC(=O)Nc1cncc(-c2cc3c(-c4cc5c(-c6cc(F)cc(NCCN(C)C)c6)ccnc5[nH]4)n[nH]c3cn2)c1 | 10 | 39 | > 10000 | 162 |
| O=C(Nc1cncc(-c2cc3c(-c4nc5c(-c6cccs6)nccc5[nH]4)n[nH]c3cn2)c1)C1CC1 |  | 35 | 22.2 | 68.3 |
| CN(C)Cc1cncc(-c2ccc3[nH]nc(-c4cc5c(-c6cccnc6)cccc5[nH]4)c3n2)c1 |  | 82 | 415 | 35.9 |
| CCNCc1cncc(-c2cnc3[nH]nc(-c4nc5c(-c6cccc(F)c6)cccc5[nH]4)c3c2)c1 |  | 48 | 40.9 | 98.7 |
| CC(C)CC(=O)Nc1cncc(-c2cc3c(-c4nc5c(-c6ccoc6)cccc5[nH]4)n[nH]c3cn2)c1 |  | 38 | 55.3 | 58 |
| CC(C)Nc1cncc(-c2ccc3[nH]nc(-c4nc5c(-c6ccccc6F)cncc5[nH]4)c3c2)c1 |  | 36 | 1 | 56.8 |
| CS(=O)(=O)NCc1cc(F)cc(-c2cncc3[nH]c(-c4n[nH]c5cnc(-c6cncc(NC(=O)C7CCC7)c6)cc45)cc23)c1 |  | 32 | > 10000 | 15.5 |
| c1cncc(-c2ccc3[nH]nc(-c4cc5c(-c6cccnc6)ccnc5[nH]4)c3c2)c1 |  | 34 | > 10000 | 16.7 |
| O=C(Nc1cncc(-c2ccc3[nH]nc(-c4nc5c(-c6ccccc6F)cccc5[nH]4)c3n2)c1)C(F)(F)F |  | 30 | 823 | 40.1 |
| CN1CCN(c2ccnc3[nH]c(-c4n[nH]c5ccc(-c6cncc(N)c6)nc45)nc23)CC1 |  | 93 | > 10000 | 46.9 |

Stronger by EC50 [2], values ahead:

| EC50 [1] [nM] | EC50 [2] [nM] | EC50 [3] [nM] | SMILES | Emax at 0.01 µM [4] [%] |
| --- | --- | --- | --- | --- |
| 30 | 15 | 1270 | CC(C)Nc1cncc(-c2ccc3[nH]nc(-c4nc5c(-c6cccnc6)cncc5[nH]4)c3n2)c1 | 64.6 |
| 30 | 26 | 377 | COc1cccc(-c2nccc3[nH]c(-c4n[nH]c5ccc(-c6cccnc6)nc45)nc23)c1 | 50.6 |
| 30 | 2 | 133 | c1cncc(-c2cc3c(-c4cc5cnccc5[nH]4)n[nH]c3cn2)c1 | 62 |
| 10 | 20 | > 10000 | c1cc(-c2cncc3[nH]c(-c4n[nH]c5ccc(-c6cncc(CN7CCCCC7)c6)nc45)cc23)ccn1 | 97.1 |
| 10 | 4 | 2800 | CN1CCN(c2nccc3[nH]c(-c4n[nH]c5cnc(-c6cncc(NC(=O)c7ccccc7)c6)cc45)cc23)CC1 | 67 |
|  | 26 | 700 | CC(C)C(=O)Nc1cncc(-c2cc3c(-c4cc5c(N6CCN(C)CC6)cccc5[nH]4)n[nH]c3cn2)c1 | 36.4 |
|  | 14 | 1680 | CCCC(=O)Nc1cncc(-c2cnc3[nH]nc(-c4cc5c(-c6cc(F)cc(CNS(C)(=O)=O)c6)cncc5[nH]4)c3c2)c1 | 36.7 |
|  | 21 | 594 | Fc1ccc(-c2cncc3[nH]c(-c4n[nH]c5ncc(-c6cncnc6)cc45)cc23)cc1 | 23.8 |
|  | 5 | 345 | O=C(CC1CCNCC1)Nc1cncc(-c2cc3c(-c4nc5c(-c6cccc(F)c6)ccnc5[nH]4)n[nH]c3cn2)c1 | 54.7 |
|  | 14 | 479 | CC(C)CC(=O)Nc1cncc(-c2ccc3[nH]nc(-c4cc5c(-c6cc(F)cc(CNS(C)(=O)=O)c6)nccc5[nH]4)c3n2)c1 | 33.1 |
|  | 18 | 45 | CCC(=O)Nc1cncc(-c2ccc3[nH]nc(-c4cc5c(-c6cccc(F)c6)nccc5[nH]4)c3c2)c1 | 16.2 |
|  | 7 | 681 | COc1cncc(C(=O)Nc2c[nH]nc2C(=O)Nc2ccc(N3CCNCC3)nc2)c1 | 90.7 |
|  | 16 | > 10000 | CN1CCN(c2nccc3[nH]c(-c4n[nH]c5cnc(-c6cncc(N)c6)cc45)cc23)CC1 | 49.8 |
|  | 21 | 1850 | CS(=O)(=O)NCc1cc(F)cc(-c2cncc3[nH]c(-c4n[nH]c5ncc(-c6cncc(CN7CCCCC7)c6)cc45)cc23)c1 | 22.7 |
|  | 10 | 22 | CC(C)CC(=O)Nc1cncc(-c2ccc3[nH]nc(-c4nc5c(-c6cc(F)cc(NCCN(C)C)c6)cncc5[nH]4)c3c2)c1 | 82 |
|  | 5 | 3450 | CC(C)CC(=O)Nc1cncc(-c2ccc3[nH]nc(-c4cc5c(N6CCN(C)CC6)ccnc5[nH]4)c3n2)c1 | 49.5 |
|  | 2 | 3570 | CCCCC(=O)Nc1cncc(-c2cc3c(-c4cc5cnccc5[nH]4)n[nH]c3cn2)c1 | 49.9 |
